According to ChEMBL document CHEMBL1129337, “Aristeromycin-5'-carboxaldehyde: a potent inhibitor of S-adenosyl-L-homocysteine hydrolase” (J Med Chem, 1996):

Key:
[1] = biological target: T1, Adenosylhomocysteinase (Homo sapiens, UniProt P23526)
Target sequence in this assay (P23526 2-432 limits assumed): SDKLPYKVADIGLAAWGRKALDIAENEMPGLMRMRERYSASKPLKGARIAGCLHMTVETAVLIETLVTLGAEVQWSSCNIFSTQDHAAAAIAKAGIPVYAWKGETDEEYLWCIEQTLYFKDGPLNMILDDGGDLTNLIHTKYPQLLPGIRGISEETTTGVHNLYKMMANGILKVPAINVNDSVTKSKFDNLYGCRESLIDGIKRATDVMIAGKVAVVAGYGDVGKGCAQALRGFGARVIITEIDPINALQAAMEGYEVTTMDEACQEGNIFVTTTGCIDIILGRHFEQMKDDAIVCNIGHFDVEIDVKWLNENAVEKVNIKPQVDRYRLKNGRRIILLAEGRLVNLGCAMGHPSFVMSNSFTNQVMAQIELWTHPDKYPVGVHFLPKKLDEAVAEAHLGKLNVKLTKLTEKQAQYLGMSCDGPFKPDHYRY
Description: Apparent inactivation rate constant (k2) for S-adenosyl-L-homocysteine hydrolase

[2] = biological target: T1, Adenosylhomocysteinase; experiment: Binding affinity towards purified recombinant human placental S-adenosyl-L-homocysteine hydrolase
Target sequence in this assay (P23526 whole entry): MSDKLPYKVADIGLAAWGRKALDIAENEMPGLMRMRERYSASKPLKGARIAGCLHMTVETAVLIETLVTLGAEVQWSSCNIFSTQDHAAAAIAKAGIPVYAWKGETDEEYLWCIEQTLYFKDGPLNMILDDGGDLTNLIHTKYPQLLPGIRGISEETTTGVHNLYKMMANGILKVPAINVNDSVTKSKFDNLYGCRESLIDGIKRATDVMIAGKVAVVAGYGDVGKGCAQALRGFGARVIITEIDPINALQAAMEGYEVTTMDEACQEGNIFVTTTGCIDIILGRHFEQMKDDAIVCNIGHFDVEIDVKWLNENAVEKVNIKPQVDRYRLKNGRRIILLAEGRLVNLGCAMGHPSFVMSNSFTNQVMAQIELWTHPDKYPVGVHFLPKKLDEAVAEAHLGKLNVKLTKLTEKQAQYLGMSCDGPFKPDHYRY

k2 [1] [min⁻¹]	Ki [2] [nM]	SMILES
0.22	43	Nc1ncnc2c1ncn2[C@@H]1O[C@H](C=O)[C@@H](O)[C@H]1O
0.65	39	Nc1ncnc2c1ncn2[C@@H]1O[C@@H](C=O)[C@@H](O)[C@H]1O
0.37	4500	Nc1ncnc2c1ncn2[C@@H]1C[C@H](C=O)[C@@H](O)[C@H]1O
1.2	273	Nc1ncnc2c1ncn2[C@@H]1C[C@@H](C=O)[C@@H](O)[C@H]1O
